Experimental data: PubChem BioAssay (NCI)
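96-well plates; 48 h exposure; 5 concentrations. Endpoints by linear interpolation between flanking doses. Not reached: highest tested concentration assigned. TGI: concentration producing complete growth inhibition.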

Experiments:
Experiment in all cases: DTP human tumour cell line panel, 48 h
[1] = system: MOLT-4 leukemia
[2] = system: PC-3 prostate
[3] = system: UO-31 renal
[4] = system: RPMI-8226 leukemia
[5] = system: CAKI-1 renal
[6] = system: MCF7 breast
[7] = system: HOP-92 NSCLC
[8] = system: SK-MEL-5 melanoma
[9] = system: RXF 393 renal
[10] = system: SW-620 colon
[11] = system: HCT-116 colon
[12] = system: MALME-3M melanoma
[13] = system: NCI/ADR-RES ovarian
[14] = system: BT-549 breast
[15] = system: 786-0 renal
[16] = system: UACC-62 melanoma
[17] = system: M14 melanoma
[18] = system: HCC-2998 colon
[19] = system: HL-60(TB) leukemia
[20] = system: SK-MEL-28 melanoma
[21] = system: NCI-H23 lung
[22] = system: ACHN renal
[23] = system: HCT-15 colon
[24] = system: U251 CNS
[25] = system: IGROV1 ovarian
[26] = system: SF-539 CNS
[27] = system: OVCAR-4 ovarian
[28] = system: SF-268 CNS
[29] = system: SNB-19 CNS
[30] = system: NCI-H226 lung
[31] = system: OVCAR-3 ovarian
[32] = system: NCI-H522 lung
[33] = system: UACC-257 melanoma
[34] = system: SR leukemia
[35] = system: MDA-MB-435
[36] = system: SK-OV-3 ovarian
[37] = system: A549 NSCLC
[38] = system: TK-10 renal
[39] = system: KM12 colon
[40] = system: OVCAR-5 ovarian
[41] = system: SF-295 CNS
[42] = system: NCI-H460 lung
[43] = system: MDA-MB-231 breast
[44] = system: SK-MEL-2 melanoma
[45] = system: K-562 leukemia
[46] = system: HOP-62 NSCLC
[47] = system: HT29 colon
[48] = system: CCRF-CEM leukemia
[49] = system: OVCAR-8 ovarian
[50] = system: COLO 205 colon
[51] = system: EKVX NSCLC
[52] = system: HS 578T breast

Measured: TGI

CCOc1ccc(N=Nc2ccc(-c3ccc(N=Nc4c(O)ccc5cc(S(=O)(=O)O)cc(S(=O)(=O)O)c45)cc3)cc2)cc1
> 100 µM: [1] | [2] | [3] | [4] | [5] | [6] | [7] | [8] | [9] | [10] | [11] | [12] | [13] | [14] | [15] | [16] | [17] | [18] | [19] | [20] | [21] | [22] | [23] | [24] | [25] | [26] | [27] | [28] | [29] | [30] | [31] | [32] | [33] | [34] | [35] | [36] | [37] | [38] | [39] | [40] | [41] | [42] | [43] | [44] | [45] | [46] | [47] | [48] | [49] | [50] | [51] | [52]

CC(C)(C)[Si](C)(C)OCCC1CC2(S(=O)(=O)C3=CC=C=C=C3)ON1CC2S(=O)(=O)c1ccccc1 (centres undefined)
> 100 µM: [24] | [36]
